Data reported in patent US20130273564A1, “DISPERSION INJECTION METHODS FOR BIOSENSING” (priority 2010, published 2013).

Tested on: partially denatured carbonic anhydrase II
Conditions: sigmoidal TDi, degraded surface, 10° C., global two-site interaction model
Description: A second sensing surface remained uncoated to provide an accurate reference surface. […] FCI was performed by separately injecting 50 μL of each dilution at a rate of 50 μL min^−1. EDTA was excluded from the buffer to maintain the binding activity of the Zn-dependent carbonic anhydrase 11.
Two separate sigmoidal TDi assays were performed. The first sigmoidal TDi assay (FIG. 8B) was performed by injecting 250 μL of analyte sample at a flow rate of 100 μL min^−1 using a dispersion tube having a total volume capacity of 512 μL and a diameter of 0.50 mm. […] The second sigmoidal TDi assay (FIG. 8C) was performed by injecting 250 μL of analyte sample at a flow rate of 50 μL min^−1 using a dispersion tube having a total volume capacity of 512 μL and a diameter of 0.50 mm. […] The carbonic anhydrase II-coated surface was permitted to degrade at 25° C. for several days before performing the sigmoid TDi analysis. The second TDi assay was performed at 10° C. to preserve weak non-specific binding in order to mimic a realistic complex data set.

D: 4.49(1)×10^−10 m^2s^−1
Compound: NS(=O)(=O)c1cc(C(=O)O)c(NCc2ccco2)cc1Cl [furosemide]
